This is an account of results in patent US20260151413A1, “ANTICANCER DRUG CONJUGATES” (Ariel Scientific Innovations Ltd., priority 2022, published 2026).

The test system of data set [1] is 10 hematological cell-lines. Nature of the data set: In vitro cytotoxicity screening on the panel of hematological cell-lines (WST-1). As to conditions: for effect on proliferation rate across the examined cell-lines: 10 hematological cell-lines, WST-1; for cytotoxic effect compared to the parental non-conjugated drug: chimera vs its parent drug.
Procedure: The above cells were cultured in RPMI medium (Gibco, Thermo Fisher Scientific Inc., USA). […] All media were supplemented with 10% heat-inactivated Fetal Bovine Serum (FBS, Biological industries, Israel), 2 mM glutamine (Biological industries, Israel) and 1% penicillin and streptomycin (Biological industries, Israel). Cells were cultured at 37° C. in a humidified incubator with 5% CO2.
Growth inhibition in hematological malignancies cell-lines was measured by tetrazolium WST-1 assay (Roche, Basel, Switzerland). Cells (1*10^4) were treated with various concentrations of the specific chimera or parental drug. After 48 h of incubation, 10 μl of WST-1 reagent was added to the plate and incubated for 1 h at 37° C., at which point the absorbance (450 nm) was measured in an ELISA plate reader (Synergy HTX multi-mode reader, Winooski, Vermont, USA).
MUTZ5 and MHH-CALL4; B-cell Acute lymphocytic leukemia (B-cell ALL) model. DND41; T-ALL model. KG-1a and OCI-AML-3; Acute myeloid leukemia (AML) model and HEL; erythroleukemia model.
For the next data set, the system named is HEL. Description: WST-1 proliferation assay, HEL. Type of data set: cell-based, human. As to conditions: WST-1, 48 hours of treatment. Here is the method:
(§1) Albert Pinhasov (Ariel University, Ariel, Israel). […] Granta cells were kindly provided by Prof.
(§2) Table 3 [resents the calculated IC50 values (μM) for each chimera in different hematological malignancies cell-lines. The proliferation rate was measured by WST-1 assay after 48 hours of treatment. The result shown for each concentration point represents the […]

A further data set has as its system MHH-CALL4. Description: WST-1 proliferation assay, MHH-CALL4. Type of data set: cell-based, human. To be noted: WST-1, 48 hours of treatment. The protocol:
as §1, §2

A further data set concerns KG-1a. Nature of the data set: WST-1 proliferation assay, KG-1a. The class given is cell-based. As to conditions: WST-1, 48 hours of treatment. Here is the method: as §1, §2
In a further data set the test system is Rec-1. Description: WST-1 proliferation assay, Rec-1. Type of data set: cell-based, human. To be noted: WST-1, 48 hours of treatment. Here is the method: as §1, §2
The subject of the next data set is MUTZ5. Description: WST-1 proliferation assay, MUTZ5. Type of data set: cell-based, human. To be noted: WST-1, 48 hours of treatment. Here is the method:
as §1, §2

The subject of the next data set is MINO. Description: WST-1 proliferation assay, MINO. Type of data set: cell-based, human. To be noted: WST-1, 48 hours of treatment. Here is the method: as §1, §2
For another data set, the system named is OCI-AML3. Description: WST-1 proliferation assay, OCI-AML3. The class given is cell-based. As to conditions: WST-1, 48 hours of treatment. Here is the method:
as §1, §2

For another data set, the system named is GRANTA. Nature of the data set: WST-1 proliferation assay, GRANTA. As to conditions: WST-1, 48 hours of treatment. The class given is cell-based. The protocol: as §1, §2
A further data set has as its system JEKO-1. Description: WST-1 proliferation assay, JEKO-1. The class given is cell-based, human. As to conditions: WST-1, 48 hours of treatment. Here is the method:
as §1, §2

Another data set deals with DND41. Nature of the data set: WST-1 proliferation assay, DND41. Type of data set: cell-based, human. As to conditions: WST-1, 48 hours of treatment. The protocol: as §1, §2
In data set [2] the test system is Human primary anaplastic thyroid cancer (ATC) cells. Description: Vitality/proliferation of primary anaplastic thyroid cancer cells. Type of data set: cell-based. To be noted: 100 nM, 250 nM, 500 nM; 3, 5 and 7 days. The protocol:
Human primary anaplastic thyroid cancer (ATC) cells were treated with chimera 9 (100 nM, 250 nM, and 500 nM), or Doxorubicin (100 nM, 250 nM, and 500 nM), or with vehicle, for 3, 5, and 7 days.

In data set [3] the test system is aggressive papillary thyroid cancer cells. Nature of the data set: Proliferation of aggressive papillary thyroid cancer cells. Type of data set: cell-based. To be noted: 10 nM and 100 nM, with respect to DMSO control. Here is the method:
Chimera 9 (also referred to herein as Doxorubizen) was evaluated in two different concentrations (10 nM and 100 nM) on aggressive papillary thyroid cancer and with respect to the parent anticancer drug Doxorubicin.

Data set [4] deals with triple negative breast cancer (TNBC) MDA 231 cells. The protocol:
Five-week-old athymic Nude-Foxn 1nu male mice (ENVIGO Labs, Nes Ziona, Israel) were subcutaneously inoculated on the dorsal left side with […] (1×10^6 cell) into nu/nu mice, 0.2 mL per mouse) and tumors allowed to establish over time. When tumor volume reached 100 mm^3, Doxorubicin (Dox) and Doxorubizen (Chimera 9) were administered intraperitoneally (ip). Animals were removed from an experiment if either of the following conditions were fulfilled: reduction of 20% or more body weight; tumor volume>0.55 cm^3. The tumor dimensions were measured using a Vernier caliper and the volume was calculated according to the equation: Volume (mm^3) ¼ length×width×width×½ three times per week. The in vivo experiments were approved by the Animal Ethics Committee (Authorization number IL-179-06-19).
Chimera 9 was also evaluated for its effect on breast cancer model. For this evaluation, […] nude female (6-8 weeks) mice (groups 1, 2, two mice per group, groups 3, 4, 5 three mice per group) were inoculated with triple negative breast cancer (TNBC) MDA 231 cells. Group 1 was used as the control for tumor growth. After 10 days, mice were […] (ip) administered with Doxorubicin (groups 2 and 4) and Chimera 9 (Doxorubizen) (groups 3 and 5) in the following regime: ip administration of 2.5 mg/kg Doxorubicin once per week (group 2) and three sequential days per week (group 4); ip administration of 3.5 mg/kg chimera 9 once per week (group 3) and three sequential days per week (group 5). Overall experiment carried out for 5 weeks and 4 days, when the tumor volumes for all the groups were monitored. Tumors were then resected and measured.

For `CCc1c2c(nc3ccc(OCc4ccc(/N=N\N(C)C(=O)OC)cc4)cc13)-c1cc3c(c(=O)n1C2)COC(=O)[C@]3(O)CC` [Chimera 1, (S,Z)-methyl3-(4-(((4,11-diethyl-4-hydroxy-3,14-dioxo-3,4,12,14-tetrahydro-1H pyrano [3′,4′:6,7]indolizino[1,2-b]quinolin-9-yl)oxy)methyl)phenyl)-1-methyltriaz-2-ene-1-carboxylate], in [1], the “effect on proliferation rate across the examined cell-lines” value is listed as “inhibited the proliferation rate in all the examined cell-lines” and the “cytotoxic effect compared to the parental non-conjugated drug” value is “less than superior cytotoxic effect”.
For `CCc1c2c(nc3ccc(OCc4ccc(N=NN(C)C(=O)OC)cc4)cc13)-c1cc3c(c(=O)n1C2)COC(=O)C3(O)CC` (stereo not shown) [Chimera 1], the IC50 worked out at 0.55 µM in the data set with HEL; 1.2 µM in the data set with MHH-CALL4; 1.04 µM with KG-1a; 0.59 µM in the data set with Rec-1; 3.02 µM in the data set on MUTZ5; 0.63 µM in the data set on MINO. The IC50 in the data set with OCI-AML3 came out at 12.3 µM; in the data set on GRANTA, 8.42 µM; with JEKO-1 it was 0.36 µM; in the data set with DND41 it was 1.99 µM.
For `COC(=O)N(C)/N=N/c1ccc(CNc2cccc3c2CN(C2CCC(=O)NC2=O)C3=O)cc1` (stereo not shown) [Chimera 2, (E)-methyl 3-(4-(((2-(2,6-dioxopiperidin-3-yl)-1-oxoisoindolin-4-yl)amino)methyl)phenyl)-1-methyltriaz-2-ene-1-carboxylate], the “effect on proliferation rate across the examined cell-lines” value in data set [1] is listed as “decreased the proliferation rate in at least 3 cell-lines”.
On to `COC(=O)N(C)/N=N/c1ccc(CNc2cccc3c2CN(C2CCC(=O)NC2=O)C3=O)cc1` (stereo not shown) [Chimera 2], for which the IC50 in the data set with HEL came out at 1.17 µM; in the data set on MHH-CALL4, 24 µM; in the data set on KG-1a, 46 µM; in the data set with Rec-1 it was 14.2 µM; with MUTZ5, 47.5 µM; with MINO it was 5.7 µM. Besides, the half-maximal inhibitory concentration (IC50) with OCI-AML3 was 17.1 µM; in the data set with GRANTA, greater than 50 µM; with JEKO-1, 22.8 µM; in the data set with DND41, greater than 50 µM.
Regarding `COC(=O)N(C)/N=N/c1ccc(COc2c(OC)cc([C@@H]3c4cc5c(cc4[C@@H](OC4O[C@@H]6CO[C@@H](C)O[C@H]6[C@H](O)[C@H]4O)[C@H]4COC(=O)[C@H]34)OCO5)cc2OC)cc1` (stereo partly shown) [Chimera 3], the IC50 in the data set with HEL was 43.1 µM; in the data set with MHH-CALL4, greater than 50 µM; in the data set with KG-1a, greater than 50 µM; in the data set on Rec-1, 23.7 µM; in the data set with MUTZ5 it was 34.8 µM; in the data set with MINO, 30.3 µM. For the same compound, the IC50 was 10.2 µM in the data set on OCI-AML3, 42.1 µM in the data set on GRANTA, 28.6 µM with JEKO-1 and greater than 50 µM in the data set on DND41. Besides, the “cytotoxic effect compared to the parental non-conjugated drug” value in [1] is “did not show prevalence over Etoposide”.
As for `COC(=O)N(C)/N=N/c1ccc(COc2cc(/C=C\c3cc(OC)c(OC)c(OC)c3)ccc2OC)cc1` [Chimera 4, (E)-methyl3-(4-((2-methoxy-5-((Z)-3,4,5-trimethoxystyryl)phenoxy)methyl)phenyl)-1-methyltriaz-2-ene-1-carboxylate], in data set [1], the “effect on proliferation rate across the examined cell-lines” value was “decreased the proliferation rate in at least 3 cell-lines” and the “cytotoxic effect compared to the parental non-conjugated drug” value is reported as “less than superior cytotoxic effect”.
Consider `COC(=O)N(C)/N=N/c1ccc(COc2cc(/C=C\c3cc(OC)c(OC)c(OC)c3)ccc2OC)cc1` [Chimera 4], for which the IC50 worked out at 1.63 µM in the data set with HEL; 21.6 µM in the data set with MHH-CALL4; 4.72 µM in the data set with KG-1a; 0.13 µM in the data set on Rec-1; 39.8 µM with MUTZ5; 0.69 µM in the data set on MINO. Further, the IC50 in the data set with OCI-AML3 is greater than 50 µM; with GRANTA, 41.5 µM; in the data set with JEKO-1 it was 13.8 µM; with DND41, 27.6 µM.
For `COC(=O)N(C)/N=N/c1ccc(Cn2cc(F)c(=O)[nH]c2=O)cc1` [Chimera 5, (E)-methyl3-(4-((5-fluoro-2,4-dioxo-3,4-dihydropyrimidin-1(2H)-yl)methyl)phenyl)-1-methyltriaz-2-ene-1-carboxylate], in [1], the “effect on proliferation rate across the examined cell-lines” value is recorded as “decreased the proliferation rate in at least 3 cell-lines”.
For the compound `COC(=O)N(C)/N=N/c1ccc(Cn2cc(F)c(=O)[nH]c2=O)cc1` [Chimera 5], the IC50 with HEL is 2.72 µM; in the data set with MHH-CALL4, 32.4 µM; in the data set with KG-1a it was 27.7 µM; in the data set with Rec-1, 0.13 µM; in the data set with MUTZ5, 44.6 µM; with MINO it was 29.7 µM. Besides, the IC50 in the data set on OCI-AML3 is 22.7 µM; with GRANTA, greater than 50 µM; in the data set with JEKO-1, greater than 50 µM; in the data set with DND41 it was 30.9 µM.
In the case of `COC(=O)N(C)/N=N/c1ccc(CSc2ncnc3nc[nH]c23)cc1` [Chimera 6, (E)-methyl 3-(4-(((7H-purin-6-yl)thio)methyl)phenyl)-1-methyltriaz-2-ene-1-carboxylate], the “effect on proliferation rate across the examined cell-lines” value in data set [1] is “decreased the proliferation rate in at least 3 cell-lines”.
On to `COC(=O)N(C)/N=N/c1ccc(CSc2ncnc3nc[nH]c23)cc1` [Chimera 6], for which the IC50 with HEL was found to be 13.5 µM; in the data set on MHH-CALL4 it was 16.6 µM; with KG-1a, 39.2 µM; in the data set on Rec-1, 20.5 µM; in the data set with MUTZ5, 31 µM; in the data set on MINO, 6.88 µM. Also, the IC50 in the data set on OCI-AML3 was 8.76 µM; in the data set with GRANTA it was greater than 50 µM; with JEKO-1, 39.5 µM; in the data set on DND41, greater than 50 µM.
As for `COC(=O)N(C)/N=N/c1ccc(CNc2nc3ccc(OC(F)(F)F)cc3s2)cc1` [Chimera 7, (E)-methyl1-methyl-3-(4-(((6-(trifluoromethoxy)benzo [d]thiazol2yl)amino)methyl)phenyl) triaz-2-ene-1-carboxylate], in data set [1], the “effect on proliferation rate across the examined cell-lines” value was “decreased the proliferation rate in at least 3 cell-lines” and the “cytotoxic effect compared to the parental non-conjugated drug” value is reported as “reduced proliferation rate of numerous cell-lines”.
For `COC(=O)N(C)/N=N/c1ccc(CNc2nc3ccc(OC(F)(F)F)cc3s2)cc1` [Chimera 7], the IC50 with HEL is 2.37 µM; in the data set with MHH-CALL4, 5.25 µM; in the data set on KG-1a, 23 µM; in the data set on Rec-1, 18 µM; in the data set with MUTZ5 it was 1.81 µM; with MINO, 7.8 µM. In addition, the IC50 was 14.2 µM in the data set on OCI-AML3, 43 µM in the data set on GRANTA, greater than 50 µM in the data set with JEKO-1 and 2.37 µM in the data set with DND41.
Take `COC(=O)N(C)/N=N/c1ccc(CNc2cc3c4c(cccc4c2)C(=O)N(CCN(C)C)C3=O)cc1` [Chimera 8]: the IC50 is 1.97 µM in the data set on HEL; 36 µM in the data set on MHH-CALL4; 19.1 µM in the data set on KG-1a; greater than 50 µM in the data set with Rec-1; 10.3 µM in the data set on MUTZ5; 13.3 µM in the data set with MINO. Further, the IC50 in the data set with OCI-AML3 is 12.7 µM; in the data set with GRANTA, greater than 50 µM; in the data set on JEKO-1, 7.12 µM; in the data set with DND41, 20.9 µM.
For `COc1cccc2c1C(=O)c1c(O)c3c(c(O)c1C2=O)C[C@@](O)(C(=O)CO)C[C@@H]3O[C@H]1C[C@H](N)[C@H](O)[C@H](C)O1` [Doxorubicin, reference compound], the “vitality/proliferation of primary human ATC cells” value in [2] is on record as “reduced the vitality/proliferation of primary human ATC cells significantly”. Also, the “proliferation of thyroid cancer cells” value in data set [3] is on record as “no effect on cell proliferation”. Further, the “day of sacrifice due to large tumor volumes and severe animal conditions” value in data set [4] (Group 2: ip 2.5 mg/kg once per week) is 12 days. Further, the “day of death due to over toxication” value in [4] (Group 4: ip 2.5 mg/kg, three sequential days per week) came out at 20 days.
